According to PMC9286623:

Assay: head-to-tail macrolactamisation of side-chain-protected linear peptides (crude from 2-ClTrt resin, TFE cleavage); DEPBT (2-2.5 equiv), NEt3 (10-12 equiv), 24 h; AcOH quench, prep HPLC
Settings: MeCN with <1-10% DMSO (3i: 5% DMF in MeCN), 2.0 mM, 25.0 °C

Compound: CC[C@H](C)[C@@H]1NC(=O)[C@H](COC(C)(C)C)NC(=O)[C@H](CCCCNC(=O)OC(C)(C)C)NC(=O)[C@H](Cc2ccccc2)NC(=O)[C@@H]2CCCN2C(=O)[C@H](CCCCNC(=O)OC(C)(C)C)NC(=O)[C@H](CSC(c2ccccc2)(c2ccccc2)c2ccccc2)NC(=O)[C@H](CCCCNC(=O)OC(C)(C)C)NC1=O
- ring closure, isolated yield (from CC[C@H](C)[C@H](NC(=O)[C@H](COC(C)(C)C)NC(=O)[C@H](CCCCNC(=O)OC(C)(C)C)NC(=O)[C@H](Cc1ccccc1)NC(=O)[C@@H]1CCCN1C(=O)[C@H](CCCCNC(=O)OC(C)(C)C)NC(=O)[C@H](CSC(c1ccccc1)(c1ccccc1)c1ccccc1)NC(=O)[C@@H](N)CCCCNC(=O)OC(C)(C)C)C(=O)O, 24-membered ring, 24.0 h): 22%

Compound: CC[C@H](C)[C@@H]1NC(=O)[C@H](CSC(c2ccccc2)(c2ccccc2)c2ccccc2)NC(=O)[C@@H]2CCCN2C(=O)[C@H](CCCCNC(=O)OC(C)(C)C)NC(=O)[C@H](COC(C)(C)C)NC(=O)[C@H](CCCCNC(=O)OC(C)(C)C)NC(=O)[C@H](CCCCNC(=O)OC(C)(C)C)NC(=O)[C@H](Cc2ccccc2)NC1=O
- ring closure, isolated yield (from CC[C@H](C)[C@H](NC(=O)[C@H](CSC(c1ccccc1)(c1ccccc1)c1ccccc1)NC(=O)[C@@H]1CCCN1C(=O)[C@H](CCCCNC(=O)OC(C)(C)C)NC(=O)[C@H](COC(C)(C)C)NC(=O)[C@@H](N)CCCCNC(=O)OC(C)(C)C)C(=O)N[C@@H](Cc1ccccc1)C(=O)N[C@@H](CCCCNC(=O)OC(C)(C)C)C(=O)O, 24-membered ring, 24.0 h): 36%

Compound: Cc1c(C)c(S(=O)(=O)NC(=N)NCCC[C@@H]2NC(=O)[C@H](C)NC(=O)[C@H](Cc3cn(C(=O)OC(C)(C)C)c4ccccc34)NC(=O)[C@H]([C@@H](C)OC(C)(C)C)NC(=O)[C@H](C)NC2=O)c(C)c2c1OC(C)(C)C2 [H-Arg(Pbf)-Ala-Thr(tBu)-Trp(Boc)-Ala-OH]
- ring closure, isolated yield (from Cc1c(C)c(S(=O)(=O)NC(=N)NCCC[C@H](N)C(=O)N[C@@H](C)C(=O)N[C@H](C(=O)N[C@@H](Cc2cn(C(=O)OC(C)(C)C)c3ccccc23)C(=O)N[C@@H](C)C(=O)O)[C@@H](C)OC(C)(C)C)c(C)c2c1OC(C)(C)C2, 15-membered ring, 24.0 h): 27%

Compound: Cc1c(C)c(S(=O)(=O)NC(=N)NCCC[C@@H]2NC(=O)[C@H](C)NC(=O)[C@H](C)NC(=O)[C@H]([C@@H](C)OC(C)(C)C)NC(=O)[C@H](CSC(c3ccccc3)(c3ccccc3)c3ccccc3)NC2=O)c(C)c2c1OC(C)(C)C2 [H-Arg(Pbf)-Cys(Trt)-Thr(tBu)-Ala-Ala-OH]
- ring closure, isolated yield (from Cc1c(C)c(S(=O)(=O)NC(=N)NCCC[C@H](N)C(=O)N[C@@H](CSC(c2ccccc2)(c2ccccc2)c2ccccc2)C(=O)N[C@H](C(=O)N[C@@H](C)C(=O)N[C@@H](C)C(=O)O)[C@@H](C)OC(C)(C)C)c(C)c2c1OC(C)(C)C2, 15-membered ring, 24.0 h): 21%

Compound: Cc1c(C)c(S(=O)(=O)NC(=N)NCCC[C@@H]2NC(=O)[C@H](C)NC(=O)[C@H](CSC(c3ccccc3)(c3ccccc3)c3ccccc3)NC(=O)[C@H]([C@@H](C)OC(C)(C)C)NC(=O)[C@H](CSC(c3ccccc3)(c3ccccc3)c3ccccc3)NC2=O)c(C)c2c1OC(C)(C)C2 [H-Arg(Pbf)-Cys(Trt)-Thr(tBu)-Cys(Trt)-Ala-OH]
- ring closure, isolated yield (from Cc1c(C)c(S(=O)(=O)NC(=N)NCCC[C@H](N)C(=O)N[C@@H](CSC(c2ccccc2)(c2ccccc2)c2ccccc2)C(=O)N[C@H](C(=O)N[C@@H](CSC(c2ccccc2)(c2ccccc2)c2ccccc2)C(=O)N[C@@H](C)C(=O)O)[C@@H](C)OC(C)(C)C)c(C)c2c1OC(C)(C)C2, 15-membered ring, 24.0 h): 16%

Compound: Cc1c(C)c(S(=O)(=O)NC(=N)NCCC[C@@H]2NC(=O)[C@H](C)NC(=O)[C@H](Cc3cn(C(=O)OC(C)(C)C)c4ccccc34)NC(=O)[C@H]([C@@H](C)OC(C)(C)C)NC(=O)[C@H](CSC(c3ccccc3)(c3ccccc3)c3ccccc3)NC2=O)c(C)c2c1OC(C)(C)C2 [H-Arg(Pbf)-Cys(Trt)-Thr(tBu)-Trp(Boc)-Ala-OH]
- ring closure, isolated yield (from Cc1c(C)c(S(=O)(=O)NC(=N)NCCC[C@H](N)C(=O)N[C@@H](CSC(c2ccccc2)(c2ccccc2)c2ccccc2)C(=O)N[C@H](C(=O)N[C@@H](Cc2cn(C(=O)OC(C)(C)C)c3ccccc23)C(=O)N[C@@H](C)C(=O)O)[C@@H](C)OC(C)(C)C)c(C)c2c1OC(C)(C)C2, 15-membered ring, 24.0 h): 16%

Compound: Cc1c(C)c(S(=O)(=O)NC(=N)NCCC[C@@H]2NC(=O)[C@H](C)NC(=O)[C@H](Cc3cn(C(=O)OC(C)(C)C)c4ccccc34)NC(=O)[C@H]([C@@H](C)OC(C)(C)C)NC(=O)[C@@H]3CCCN3C2=O)c(C)c2c1OC(C)(C)C2 [H-Arg(Pbf)-Pro-Thr(tBu)-Trp(Boc)-Ala-OH]
- ring closure, isolated yield (from Cc1c(C)c(S(=O)(=O)NC(=N)NCCC[C@H](N)C(=O)N2CCC[C@H]2C(=O)N[C@H](C(=O)N[C@@H](Cc2cn(C(=O)OC(C)(C)C)c3ccccc23)C(=O)N[C@@H](C)C(=O)O)[C@@H](C)OC(C)(C)C)c(C)c2c1OC(C)(C)C2, 15-membered ring, 24.0 h): 0%

Compound: CC[C@H](C)[C@@H]1NC(=O)[C@@H]2CCCN2C(=O)[C@H](CCCCNC(=O)OC(C)(C)C)NC(=O)[C@H](CSC(c2ccccc2)(c2ccccc2)c2ccccc2)NC(=O)[C@H](Cc2cn(C(=O)OC(C)(C)C)c3ccccc23)NC(=O)[C@H]([C@@H](C)OC(C)(C)C)NC(=O)[C@@H]2CCCN2C1=O [H-Cys(Trt)-Lys(Boc)-Pro-Ile-Pro-Thr(tBu)-Trp(Boc)-OH]
- ring closure, isolated yield (from CC[C@H](C)[C@H](NC(=O)[C@@H]1CCCN1C(=O)[C@H](CCCCNC(=O)OC(C)(C)C)NC(=O)[C@@H](N)CSC(c1ccccc1)(c1ccccc1)c1ccccc1)C(=O)N1CCC[C@H]1C(=O)N[C@H](C(=O)N[C@@H](Cc1cn(C(=O)OC(C)(C)C)c2ccccc12)C(=O)O)[C@@H](C)OC(C)(C)C, 21-membered ring): 0%

Compound: CC(C)C[C@@H]1NC(=O)[C@H](CC(C)C)NC(=O)[C@H](CC(=O)NC(c2ccccc2)(c2ccccc2)c2ccccc2)NC(=O)[C@@H]2CCCN2C(=O)[C@@H]2CCCN2C(=O)[C@H](CSC(c2ccccc2)(c2ccccc2)c2ccccc2)NC(=O)[C@H](CC(C)C)NC(=O)[C@H](CCC(=O)OC(C)(C)C)NC1=O [H-Glu(OtBu)-Leu-Cys(Trt)-Pro-Pro-Asn(Trt)-Leu-Leu-OH]
- ring closure, isolated yield (from CC(C)C[C@H](NC(=O)[C@H](CC(C)C)NC(=O)[C@H](CC(=O)NC(c1ccccc1)(c1ccccc1)c1ccccc1)NC(=O)[C@@H]1CCCN1C(=O)[C@@H]1CCCN1C(=O)[C@H](CSC(c1ccccc1)(c1ccccc1)c1ccccc1)NC(=O)[C@H](CC(C)C)NC(=O)[C@@H](N)CCC(=O)OC(C)(C)C)C(=O)O, 24-membered ring, 24.0 h): 26%

Compound: CC(C)C[C@@H]1NC(=O)[C@H](CSC(c2ccccc2)(c2ccccc2)c2ccccc2)NC(=O)[C@H](CC(C)C)NC(=O)[C@@H]2CCCN2C(=O)[C@H](CC(=O)NC(c2ccccc2)(c2ccccc2)c2ccccc2)NC(=O)[C@H](CC(C)C)NC(=O)[C@@H]2CCCN2C(=O)[C@H](CCC(=O)OC(C)(C)C)NC1=O [H-Leu-Glu(OtBu)-Pro-Leu-Asn(Trt)-Pro-Leu-Cys(Trt)-OH]
- ring closure, isolated yield (from CC(C)C[C@H](NC(=O)[C@@H]1CCCN1C(=O)[C@H](CC(=O)NC(c1ccccc1)(c1ccccc1)c1ccccc1)NC(=O)[C@H](CC(C)C)NC(=O)[C@@H]1CCCN1C(=O)[C@H](CCC(=O)OC(C)(C)C)NC(=O)[C@@H](N)CC(C)C)C(=O)N[C@@H](CSC(c1ccccc1)(c1ccccc1)c1ccccc1)C(=O)O, 24-membered ring, 24.0 h): 23%

Compound: CC[C@H](C)[C@@H]1NC(=O)[C@@H]2CCCN2C(=O)[C@H](CCCCNC(=O)OC(C)(C)C)NC(=O)[C@H](CSC(c2ccccc2)(c2ccccc2)c2ccccc2)NC(=O)[C@H](Cc2cn(C(=O)OC(C)(C)C)c3ccccc23)NC(=O)[C@H]([C@@H](C)OC(C)(C)C)NC(=O)[C@@H]2CCCN2C1=O [H-Lys(Boc)-Pro-Ile-Pro-Thr(tBu)-Trp(Boc)-Cys(Trt)-OH]
- ring closure, isolated yield (from CC[C@H](C)[C@H](NC(=O)[C@@H]1CCCN1C(=O)[C@@H](N)CCCCNC(=O)OC(C)(C)C)C(=O)N1CCC[C@H]1C(=O)N[C@H](C(=O)N[C@@H](Cc1cn(C(=O)OC(C)(C)C)c2ccccc12)C(=O)N[C@@H](CSC(c1ccccc1)(c1ccccc1)c1ccccc1)C(=O)O)[C@@H](C)OC(C)(C)C, 21-membered ring): 0%

Compound: CC[C@H](C)[C@@H]1NC(=O)[C@H](Cc2cn(C(=O)OC(C)(C)C)c3ccccc23)NC(=O)[C@@H]2CCCN2C(=O)[C@H](CSC(c2ccccc2)(c2ccccc2)c2ccccc2)NC(=O)[C@@H]2CCCN2C(=O)[C@H](CCCCNC(=O)OC(C)(C)C)NC(=O)[C@H]([C@@H](C)OC(C)(C)C)NC1=O [H-Thr(tBu)-Lys(Boc)-Pro-Cys(Trt)-Pro-Trp(Boc)-Ile-OH]
- ring closure, isolated yield (from CC[C@H](C)[C@H](NC(=O)[C@H](Cc1cn(C(=O)OC(C)(C)C)c2ccccc12)NC(=O)[C@@H]1CCCN1C(=O)[C@H](CSC(c1ccccc1)(c1ccccc1)c1ccccc1)NC(=O)[C@@H]1CCCN1C(=O)[C@H](CCCCNC(=O)OC(C)(C)C)NC(=O)[C@@H](N)[C@@H](C)OC(C)(C)C)C(=O)O, 21-membered ring, 24.0 h): 29%

Compound: CC[C@H](C)[C@@H]1NC(=O)[C@@H]2CCCN2C(=O)[C@H](CCCCNC(=O)OC(C)(C)C)NC(=O)[C@H](CSC(c2ccccc2)(c2ccccc2)c2ccccc2)NC(=O)[C@H](Cc2cn(C(=O)OC(C)(C)C)c3ccccc23)NC(=O)[C@H]([C@@H](C)OC(C)(C)C)NC(=O)[C@@H]2CCCN2C1=O [H-Trp(Boc)-Cys(Trt)-Lys(Boc)-Pro-Ile-Pro-Thr(tBu)-OH]
- ring closure, isolated yield (from CC[C@H](C)[C@H](NC(=O)[C@@H]1CCCN1C(=O)[C@H](CCCCNC(=O)OC(C)(C)C)NC(=O)[C@H](CSC(c1ccccc1)(c1ccccc1)c1ccccc1)NC(=O)[C@@H](N)Cc1cn(C(=O)OC(C)(C)C)c2ccccc12)C(=O)N1CCC[C@H]1C(=O)N[C@H](C(=O)O)[C@@H](C)OC(C)(C)C, 21-membered ring, 24.0 h): 12%
